Laboratory results published in patent US5256788A, “Moranoline derivatives and their production and the use of moranoline and its derivatives as a stabilizing agent for enzymes” (Nippon Shinyaku Co. Ltd., priority 1989, dated 1993).

Target: T1, glucoamylase (Rhizopus arrhizus, UniProt P07683)
T1 construct: maltose substrate
Test: Stabilization of GA (aqueous solution) by moranoline, N-methylmoranoline
Format: biochemical, Rhizopus niveus
Method: As the enzyme, Rhizopus niveus-derived reagent glucoamylase manufactured by Seikagaku Kogyo Co., Ltd. was used.
After 5 mg of the enzyme was dissolved in 1 ml of 0.1M acetate buffer solution (pH 5.0), moranoline and N-methylmoranoline were dissolved in the solution in a concentration of 6000 μg/ml. The solution was charged in a test tube with a screw stopper followed by incubation at 50° C. Each enzyme solution was diluted with 0.1M acetate buffer solution (pH 5.0) to 100-fold and 100 μl of the dilution was taken. After 400 μl of 5% maltose solution (0.05M acetate buffer solution, pH 4.6) was added thereto, the mixture was reacted at 40° C. for 20 minutes. […] Thereafter, the system was ice cooled and absorbency was measured at 500 nm to determine the glucose amount. […] When the initial enzyme activity (amount of glucose produced) was made […], relative enzyme activity was determined. […]
After 5 mg of the enzyme was dissolved in 1 ml of 0.1M acetate buffer solution (pH 5.0), moranoline and N-methylmoranoline were dissolved in the solution in a concentration of 6000 μg/ml. […] Thereafter, the system was ice cooled and absorbancy was measured at 500 nm to determine the glucose amount. […] When the initial enzyme activity (amount of glucose produced) was made 100, relative enzyme activity was determined. […]

T1 sequence (P07683 26-604): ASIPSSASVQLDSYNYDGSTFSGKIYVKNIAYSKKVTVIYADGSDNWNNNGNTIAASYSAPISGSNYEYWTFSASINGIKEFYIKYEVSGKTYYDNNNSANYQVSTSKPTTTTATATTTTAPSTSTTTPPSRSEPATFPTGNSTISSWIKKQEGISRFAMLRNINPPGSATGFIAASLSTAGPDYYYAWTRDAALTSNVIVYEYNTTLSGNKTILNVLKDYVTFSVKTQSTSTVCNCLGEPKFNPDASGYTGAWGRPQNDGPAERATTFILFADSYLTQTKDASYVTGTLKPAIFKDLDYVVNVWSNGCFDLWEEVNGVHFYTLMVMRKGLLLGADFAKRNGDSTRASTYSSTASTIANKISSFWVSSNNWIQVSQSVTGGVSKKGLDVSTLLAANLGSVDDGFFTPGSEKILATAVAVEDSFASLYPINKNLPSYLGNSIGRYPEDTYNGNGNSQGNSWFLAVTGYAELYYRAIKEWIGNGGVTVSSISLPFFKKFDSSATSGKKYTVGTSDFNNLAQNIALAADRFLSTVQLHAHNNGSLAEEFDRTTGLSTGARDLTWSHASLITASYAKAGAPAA

OC[C@H]1NC[C@H](O)[C@@H](O)[C@@H]1O [moranoline]
inhibition of the enzyme activity of glucoamylase: inhibit the enzyme activity of glucoamylase
